In ChEMBL document CHEMBL3046190, “Acid promoted intramolecular formation of 3,5-anhydro-1,4-furano-7-ulose derivatives via the Wittig-cyclization procedure and their antimicrobial properties” (2013):
≈ marks a conversion by molar mass, not a printed value. Calls of active or inactive are those of the source. No cut-off for these calls is given here.

Assays:
Bacillus subtilis = assay: Antimicrobial activity against Bacillus subtilis ATCC 6633 assessed as growth inhibition after 24-48 hr by broth microdilution technique; format: functional
Staphylococcus aureus = assay: Antimicrobial activity against Staphylococcus aureus ATCC 6538-P assessed as growth inhibition after 24-48 hr by broth microdilution technique; format: functional
Candida albicans = assay: Antimicrobial activity against Candida albicans ATCC 10239 assessed as growth inhibition after 24-48 hr by broth microdilution technique; format: functional
Klebsiella pneumoniae = assay: Antimicrobial activity against Klebsiella pneumoniae CCM 2318 assessed as growth inhibition after 24 to 48 hr by broth microdilution technique; format: functional
Pseudomonas aeruginosa = assay: Antimicrobial activity against Pseudomonas aeruginosa ATCC 27853 assessed as growth inhibition after 24-48 hr by broth microdilution technique; format: functional
Escherichia coli = assay: Antimicrobial activity against Escherichia coli ATCC […] assessed as growth inhibition after 24-48 hr by broth microdilution technique; format: functional
Enterococcus faecalis = assay: Antimicrobial activity against Enterococcus faecalis ATCC 29212 assessed as growth inhibition at 0.005 to 5 mg/ml after 24-48 hr by broth microdilution technique; format: functional, organism-based
Salmonella typhimurium = assay: Antimicrobial activity against Salmonella enterica subsp. enterica serovar Typhimurium CCM 5445 assessed as growth inhibition after 24-48 hr by broth microdilution technique; format: functional

SMILES | MIC (Bacillus subtilis) | MIC (Staphylococcus aureus) | MIC (Candida albicans) | MIC (Klebsiella pneumoniae) | MIC (Pseudomonas aeruginosa) | MIC (Escherichia coli) | MIC (Salmonella typhimurium) | growth inhibition (GI) (Enterococcus faecalis)
CC(=O)Cc1ccc(C=O)o1 [5-ACETYLMETHYL-FURFURAL] | 500 µg/mL (≈ 3.29 mM) | inactive | 2500 µg/mL (≈ 16.4 mM) | 2500 µg/mL (≈ 16.4 mM) | 500 µg/mL (≈ 3.29 mM) | 500 µg/mL (≈ 3.29 mM) | 750 µg/mL (≈ 4.93 mM) | inactive
COC(C)(CC1O[C@H]2[C@H]3O[C@@H](C(Cl)(Cl)Cl)O[C@H]3O[C@H]12)OC (stereo partly drawn) | 2500 µg/mL (≈ 6.88 mM) | inactive | inactive | 2500 µg/mL (≈ 6.88 mM) | 500 µg/mL (≈ 1.38 mM) | 500 µg/mL (≈ 1.38 mM) | inactive | inactive
COC(C)(CC1O[C@H]2[C@H]3O[C@H](C(Cl)(Cl)Cl)O[C@H]3O[C@H]12)OC (stereo partly drawn) | 500 µg/mL (≈ 1.38 mM) | inactive | inactive | 2500 µg/mL (≈ 6.88 mM) | 500 µg/mL (≈ 1.38 mM) | 250 µg/mL (≈ 0.688 mM) | inactive | inactive

Continued, in another order:

MIC (Bacillus subtilis) | MIC (Staphylococcus aureus) | MIC (Candida albicans) | MIC (Klebsiella pneumoniae) | MIC (Pseudomonas aeruginosa) | MIC (Escherichia coli) | MIC (Salmonella typhimurium) | SMILES | growth inhibition (GI) (Enterococcus faecalis)
1500 µg/mL (≈ 5.47 mM) | 3500 µg/mL (≈ 12.8 mM) | inactive | inactive | 750 µg/mL (≈ 2.73 mM) | inactive | 750 µg/mL (≈ 2.73 mM) | COC(C)(CC1O[C@H]2[C@H]3OC(C)(C)O[C@H]3O[C@H]12)OC (stereo partly drawn) | inactive
inactive | inactive | inactive | inactive | inactive | inactive | inactive | COC(C)(CC1O[C@@H]2[C@H]3OC(C)(C)O[C@H]3O[C@H]12)OC (stereo partly drawn) | inactive
500 µg/mL (≈ 1.38 mM) | inactive | inactive | inactive | 500 µg/mL (≈ 1.38 mM) | 500 µg/mL (≈ 1.38 mM) | inactive | COC(C)(CC1O[C@@H]2[C@H]3O[C@@H](C(Cl)(Cl)Cl)O[C@H]3O[C@H]12)OC (stereo partly drawn) | inactive
